Measured values taken from US10195185B2, “3-(1H-imidazo[4,5-C]pyridin-2-yl)-1H-pyrazolo[4,3-B]pyridines and therapeutic uses thereof” (Samumed, LLC, priority 2015, dated 2019).

Tests used:
[1] = test system: Wnt activity (Wnt-responsive human Sp5 promoter, TCF/LEF binding sites) in SW480 colon carcinoma cells; assay: Wnt activity screening assay: Sp5-Luc luciferase reporter gene in SW480 cells; type: cell-based; conditions: for EC50: 10-point dose-response from 10 μM, incubated overnight; for inhibition at 10 µM: given for EC50 of >10 μM, read-out: percent inhibition at 10 μM
Method in brief: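 First, hygromycin-selected SW480 Sp5-Luc reporter cells are seeded in medium with 1% fetal bovine serum and exposed overnight to compound (up to 10 μM, 0.1% DMSO). Next, luciferase signal is read by luminescence. Finally, EC50 is fitted, or percent inhibition at 10 μM is reported above 10 μM.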

[2] = test system: primary human mesenchymal stem cells (hMSCs); assay: Induction of chondrogenesis in hMSCs (nodule area, Rhodamine B / Nile Red); type: cell-based; conditions: TGF-β3 as positive control; for Emax: read-out: Max. Activity as % TGF-β3 activity; for EC50: concentration required to induce 50% levels of chondrogenesis, read-out: Conc (nM) of 50% TGF-β3 activity
Method in brief: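 Primary hMSCs (passage 3–6) in incomplete chondrogenic induction medium were treated 6 days at 37° C. with 1:3 dilutions (2700–10 nM in 96-well or 5000–2.2 nM in 384-well; 0.03% DMSO). Rhodamine B/Nile Red-stained nodule area was imaged, normalized to DMSO wells, and EC50 was set against TGF-β3 (10 ng/mL).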

SMILES | EC50 [1] | EC50 [2] | inhibition at 10 µM [1] | Emax [2]
Fc1cccc(-c2nccc3[nH]c(-c4n[nH]c5ccc(-c6cn[nH]c6)nc45)nc23)c1 [Compound 507, 3-(4-(3-Fluorophenyl)-1H-imidazo[4,5-c]pyridin-2-yl)-5-(1H-pyrazol-4-yl)-1H-pyrazolo[4,3-b]pyridine] | > 10 µM | 7 nM | 15% | 70%
CCCCC(=O)Nc1cncc(-c2ccc3[nH]nc(-c4nc5c(-c6cc(F)cc(NCCN(C)C)c6)nccc5[nH]4)c3n2)c1 [Compound 467, N-(5-(3-(4-(3-((2-(Dimethylamino)ethyl)amino)-5-fluorophenyl)-1H-imidazo[4,5-c]pyridin-2-yl)-1H-pyrazolo[4,3-b]pyridin-5-yl)pyridin-3-yl)pentanamide] | > 10 µM | 100 nM | 0% | 52%
NC1CN(c2cncc(-c3ccc4[nH]nc(-c5nc6c(-c7cccc(F)c7)nccc6[nH]5)c4n3)n2)C1 [Compound 510, 1-(6-(3-(4-(3-Fluorophenyl)-1H-imidazo[4,5-c]pyridin-2-yl)-1H-pyrazolo [4,3-b]pyridin-5-yl)pyrazin-2-yl)azetidin-3-amine] | > 10 µM |  | 16.3% | 36%
Fc1cccc(-c2nccc3[nH]c(-c4n[nH]c5ccc(C6=CCNCC6)nc45)nc23)c1 [Compound 506, 3-(4-(3-Fluorophenyl)-1H-imidazo[4,5-c]pyridin-2-yl)-5-(1,2,3,6-tetrahydropyridin-4-yl)-1H-pyrazolo[4,3-b]pyridine] | > 10 µM | 21 nM | 17.6% | 56%
CC(C)Nc1cncc(-c2ccc3[nH]nc(-c4nc5c(-c6cc(F)cc(NCCN(C)C)c6)nccc5[nH]4)c3n2)c1 [Compound 460, N^1-(3-Fluoro-5-(2-(5-(5-(isopropylamino)pyridin-3-yl)-1H-pyrazolo[4,3-b]pyridin-3-yl)-1H-imidazo[4,5-c]pyridin-4-yl)phenyl)-N^2,N^2-dimethylethane-1,2-diamine] | 1.03 µM | 30 nM |  | 116%
Fc1cccc(-c2nccc3[nH]c(-c4n[nH]c5ccc(-c6cnccn6)nc45)nc23)c1 [Compound 520, 3-(4-(3-Fluorophenyl)-1H-imidazo[4,5-c]pyridin-2-yl)-5-(pyrazin-2-yl)-1H-pyrazolo[4,3-b]pyridine] | > 10 µM | 21 nM | 12.2% | 55%
Cn1cc(-c2ccc3[nH]nc(-c4nc5c(-c6cccc(F)c6)nccc5[nH]4)c3n2)cn1 [Compound 508, 3-(4-(3-Fluorophenyl)-1H-imidazo[4,5-c]pyridin-2-yl)-5-(1-methyl-1H-pyrazol-4-yl)-1H-pyrazolo[4,3-b]pyridine] | 0.115 µM |  |  | 43%

The next lines start with results.

EC50 [1] | EC50 [2] | SMILES | inhibition at 10 µM [1] | Emax [2]
> 10 µM | 1670 nM | Cc1ccc(-c2nccc3[nH]c(-c4n[nH]c5ccc(-c6cncc(NC(=O)C(C)C)c6)nc45)nc23)s1 [Compound 401, N-(5-(3-(4-(5-Methylthiophen-2-yl)-1H-imidazo[4,5-c]pyridin-2-yl)-1H-pyrazolo [4,3-b]pyridin-5-yl)pyridin-3-yl)isobutyramide] | 17.2% | 56%
0.379 µM | 900 nM | CN(C)c1cncc(-c2ccc3[nH]nc(-c4nc5c(-c6cccc(F)c6)nccc5[nH]4)c3n2)c1 [Compound 7] |  | 58%
8.63 µM | 21 nM | CC(C)CC(=O)Nc1cncc(-c2ccc3[nH]nc(-c4nc5c(-c6cccc(F)c6)nccc5[nH]4)c3n2)c1 [Compound 2, N-(5-(3-(4-(3-Fluorophenyl)-1H-imidazo[4,5-c]pyridin-2-yl)-1H-pyrazolo [4,3-b]pyridin-5-yl)pyridin-3-yl)-3-methylbutanamide] |  | 58%
0.803 µM | 100 nM | CN(C)c1cncc(-c2ccc3[nH]nc(-c4nc5c(-c6cccs6)nccc5[nH]4)c3n2)c1 [Compound 343, N,N-Dimethyl-5-(3-(4-(thiophen-2-yl)-1H-imidazo[4,5-c]pyridin-2-yl)-1H-pyrazolo[4,3-b]pyridin-5-yl)pyridin-3-amine] |  | 85%
1.06 µM | 30 nM | CN(C)Cc1cncc(-c2ccc3[nH]nc(-c4nc5c(-c6cccc(F)c6)nccc5[nH]4)c3n2)c1 [Compound 13, 1-(5-(3-(4-(3-Fluorophenyl)-1H-imidazo[4,5-c]pyridin-2-yl)-1H-pyrazolo [4,3-b]pyridin-5-yl)pyridin-3-yl)-N,N-dimethylmethanamine] |  | 76%
